Data: ChEMBL document CHEMBL4130462, “Natural isoflavone biochanin A as a template for the design of new and potent 3-phenylquinolone efflux inhibitors against Mycobacterium avium” (Eur J Med Chem, 2017)
In brackets after ≈: the same amount, converted by molar mass.

Key:
[1] = system: Mycolicibacterium smegmatis; experiment: Antimycobacterial activity against Mycobacterium smegmatis str. MC2 155 assessed as reduction in bacterial viability incubated for 3 days by MTT assay; assay type: organism-based; conditions: 72 h
Mycobacterium avium [2] = experiment: Antimycobacterial activity against Mycobacterium avium isolate MAV1 assessed as reduction in bacterial viability incubated for 3 days by MTT assay; assay type: organism-based; conditions: in vitro, 72 h
Mycobacterium avium [3] = experiment: Antimycobacterial activity against Mycobacterium avium isolate MAV2 assessed as reduction in bacterial viability incubated for 3 days by MTT assay; assay type: organism-based; conditions: 72 h
Mycobacterium avium [4] = experiment: Antimycobacterial activity against Mycobacterium avium isolate MAV4 assessed as reduction in bacterial viability incubated for 3 days by MTT assay; assay type: organism-based; conditions: 72 h
[5] = Safety index, ratio of CC50 for test compound to CC50 for thioridazine for cytotoxicity in human monocyte-derived macrophages; assay type: cell-based, Macrophage cell line
[6] = Safety index, ratio of MTC for test compound to MTC for thioridazine for cytotoxicity in human monocyte-derived macrophages; assay type: cell-based, Macrophage cell line
Mycobacterium avium [7] = conditions: 104 mc'2 3
Mycobacterium avium [8] = conditions: 104 mc'2 4
Mycobacterium avium [9] = conditions: 104
Mycobacterium avium [10] = conditions: 104 mc'2 3; remark: listed apart in the source
Mycobacterium avium [11] = conditions: 104 mc'2 4; remark: listed apart in the source
Mycobacterium avium [12] = conditions: isolate MAV1
Mycobacterium avium [13] = conditions: isolate MAV2
Mycobacterium avium [14] = conditions: isolate MAV2; remark: listed apart in the source
Mycobacterium avium [15] = conditions: 104; remark: listed apart in the source
Mycobacterium avium [16] = conditions: 104 mc'2 3; remark: listed apart in the source
Mycobacterium avium [17] = conditions: isolate MAV1; remark: listed apart in the source
Mycobacterium avium [18] = conditions: isolate MAV4
Mycobacterium avium [19] = conditions: isolate MAV4; remark: listed apart in the source
[20] = system: Mycobacterium avium subsp. avium ATCC 25291
Mycobacterium avium [21] = conditions: 104; remark: listed apart in the source
Mycobacterium avium [22] = conditions: 104; remark: listed apart in the source
Mycobacterium avium [23] = conditions: 104 mc'2 4; remark: listed apart in the source
Mycobacterium avium [24] = conditions: isolate MAV1; remark: listed apart in the source
Description: Inhibition of multidrug resistance efflux pump in Mycobacterium avium isolate MAV1 assessed as potentiation of ciprofloxacin-induced antibacterial activity by measuring ciprofloxacin MIC at 1/2 MIC incubated for 3 days by MTT assay (Rvb = 2 ug/ml)

Mycobacterium avium [25] = conditions: isolate MAV1; remark: listed apart in the source
Description: Inhibition of multidrug resistance efflux pump in Mycobacterium avium isolate MAV1 assessed as potentiation of ciprofloxacin-induced antibacterial activity by measuring ciprofloxacin MIC at 1/4 MIC incubated for 3 days by MTT assay

Mycobacterium avium [26] = conditions: isolate MAV2; remark: listed apart in the source
Mycobacterium avium [27] = conditions: isolate MAV3
Mycobacterium avium [28] = conditions: isolate MAV3; remark: listed apart in the source
Mycobacterium avium [29] = conditions: isolate MAV4; remark: listed apart in the source
Mycobacterium avium [30] = conditions: 104 mc'2 3; remark: listed apart in the source
Mycobacterium avium [31] = conditions: 104 mc'2 3; remark: listed apart in the source
Mycobacterium avium [32] = conditions: isolate MAV1; remark: listed apart in the source
Description: Inhibition of multidrug resistance efflux pump in Mycobacterium avium isolate MAV1 assessed as potentiation of ofloxacin-induced antibacterial activity by measuring ofloxacin MIC at 1/2 MIC incubated for 3 days by MTT assay (Rvb = 4 ug/ml)

Mycobacterium avium [33] = conditions: isolate MAV2; remark: listed apart in the source
Description: Inhibition of multidrug resistance efflux pump in Mycobacterium avium isolate MAV2 assessed as potentiation of ofloxacin-induced antibacterial activity by measuring ofloxacin MIC at 1/2 MIC incubated for 3 days by MTT assay

Mycobacterium avium [34] = conditions: isolate MAV4; remark: listed apart in the source
[35] = system: Mycobacterium avium subsp. avium ATCC 25291; remark: listed apart in the source
Mycobacterium avium [36] = conditions: 104 mc'2 3; remark: listed apart in the source
Mycobacterium avium [37] = conditions: isolate MAV2; remark: listed apart in the source
Mycobacterium avium [38] = conditions: isolate MAV3; remark: listed apart in the source
Mycobacterium avium [39] = conditions: isolate MAV4; remark: listed apart in the source
Mycobacterium avium [40] = conditions: isolate MAV4; remark: listed apart in the source
Description: Inhibition of multidrug resistance efflux pump in Mycobacterium avium isolate MAV4 assessed as potentiation of ethidium bromide-induced antibacterial activity by measuring ethidium bromide MIC at 1/4 MIC incubated for 3 days by MTT assay

[41] = system: Mycobacterium avium subsp. avium ATCC 25291; remark: listed apart in the source
Description: Inhibition of multidrug resistance efflux pump in Mycobacterium avium ATCC 25291 assessed as potentiation of ethidium bromide-induced antibacterial activity by measuring ethidium bromide MIC at 1/2 MIC incubated for 3 days by MTT assay (Rvb = 50 ug/ml)

[42] = system: Mycobacterium avium subsp. avium ATCC 25291; remark: listed apart in the source
Description: Inhibition of multidrug resistance efflux pump in Mycobacterium avium ATCC 25291 assessed as potentiation of ethidium bromide-induced antibacterial activity by measuring ethidium bromide MIC at 1/4 MIC incubated for 3 days by MTT assay

CCCOc1ccc(-c2cn(CCN(CC)CC)c3ccccc3c2=O)cc1
MIC [1]: 256 µg/mL (≈ 676 µM) | MIC (Mycobacterium avium [2]): 128 µg/mL (≈ 338 µM) | MIC (Mycobacterium avium [3]): 256 µg/mL (≈ 676 µM) | MIC (Mycobacterium avium [4]): 256 µg/mL (≈ 676 µM) | selectivity ratio [5]: 4 to 6 | selectivity ratio [6]: 4 to 6 | MIC (Mycobacterium avium [7]): 512 µg/mL (≈ 1350 µM) | MIC (Mycobacterium avium [8]): 256 µg/mL (≈ 676 µM) | MIC (Mycobacterium avium [9]): 16 µg/mL (≈ 42.3 µM) | MIC (Mycobacterium avium [10]): 512 µg/mL (≈ 1350 µM) | MIC (Mycobacterium avium [11]): 512 µg/mL (≈ 1350 µM) | MIC (Mycobacterium avium [12]): 32 µg/mL (≈ 84.5 µM) | MIC (Mycobacterium avium [13]): 16 µg/mL (≈ 42.3 µM) | MIC (Mycobacterium avium [14]): > 512 µg/mL | MIC (Mycobacterium avium [15]): 16 µg/mL (≈ 42.3 µM) | MIC (Mycobacterium avium [16]): 512 µg/mL (≈ 1350 µM) | MIC (Mycobacterium avium [17]): 32 µg/mL (≈ 84.5 µM) | MIC (Mycobacterium avium [18]): 16 µg/mL (≈ 42.3 µM) | MIC (Mycobacterium avium [19]): 64 µg/mL (≈ 169 µM) | MIC [20]: 64 µg/mL (≈ 169 µM) | MIC (Mycobacterium avium [21]): 1 µg/mL (≈ 2.64 µM) | MIC (Mycobacterium avium [22]): 2 µg/mL (≈ 5.28 µM) | MIC (Mycobacterium avium [23]): 4 µg/mL (≈ 10.6 µM) | MIC (Mycobacterium avium [24]): 2 µg/mL (≈ 5.28 µM) | MIC (Mycobacterium avium [25]): 2 µg/mL (≈ 5.28 µM) | MIC (Mycobacterium avium [26]): 0.5 µg/mL (≈ 1.32 µM) | MIC (Mycobacterium avium [27]): 8 µg/mL (≈ 21.1 µM) | MIC (Mycobacterium avium [28]): 32 µg/mL (≈ 84.5 µM) | MIC (Mycobacterium avium [29]): 8 µg/mL (≈ 21.1 µM) | MIC (Mycobacterium avium [30]): 8 µg/mL (≈ 21.1 µM) | MIC (Mycobacterium avium [31]): 8 µg/mL (≈ 21.1 µM) | MIC (Mycobacterium avium [32]): 4 µg/mL (≈ 10.6 µM) | MIC (Mycobacterium avium [33]): 1 µg/mL (≈ 2.64 µM) | MIC (Mycobacterium avium [34]): 4 µg/mL (≈ 10.6 µM) | MIC [35]: 16 µg/mL (≈ 42.3 µM) | MIC (Mycobacterium avium [36]): 6.25 µg/mL (≈ 16.5 µM) | MIC (Mycobacterium avium [37]): 6.25 µg/mL (≈ 16.5 µM) | MIC (Mycobacterium avium [38]): 12.5 µg/mL (≈ 33 µM) | MIC (Mycobacterium avium [39]): 6.25 µg/mL (≈ 16.5 µM) | MIC (Mycobacterium avium [40]): 12.5 µg/mL (≈ 33 µM) | MIC [41]: 25 µg/mL (≈ 66 µM) | MIC [42]: 25 µg/mL (≈ 66 µM)

CSc1ccc2c(c1)N(CCC1CCCCN1C)c1ccccc1S2 (centres undefined) [THIORIDAZINE]
MIC [1]: 30 µg/mL (≈ 81 µM) | MIC (Mycobacterium avium [2]): 30 µg/mL (≈ 81 µM) | MIC (Mycobacterium avium [3]): 30 µg/mL (≈ 81 µM) | MIC (Mycobacterium avium [4]): 30 µg/mL (≈ 81 µM) | MIC (Mycobacterium avium [7]): > 512 µg/mL | MIC (Mycobacterium avium [8]): 256 µg/mL (≈ 691 µM) | MIC (Mycobacterium avium [9]): 256 µg/mL (≈ 691 µM) | MIC (Mycobacterium avium [10]): > 512 µg/mL | MIC (Mycobacterium avium [11]): > 512 µg/mL | MIC (Mycobacterium avium [12]): < 4 µg/mL | MIC (Mycobacterium avium [13]): 512 µg/mL (≈ 1380 µM) | MIC (Mycobacterium avium [14]): > 512 µg/mL | MIC (Mycobacterium avium [15]): 64 µg/mL (≈ 173 µM) | MIC (Mycobacterium avium [16]): < 4 µg/mL | MIC (Mycobacterium avium [17]): 16 µg/mL (≈ 43.2 µM) | MIC (Mycobacterium avium [18]): 64 µg/mL (≈ 173 µM) | MIC (Mycobacterium avium [19]): 128 µg/mL (≈ 345 µM) | MIC [20]: 32 µg/mL (≈ 86.3 µM) | MIC (Mycobacterium avium [21]): 2 µg/mL (≈ 5.4 µM) | MIC (Mycobacterium avium [22]): 4 µg/mL (≈ 10.8 µM) | MIC (Mycobacterium avium [23]): 4 µg/mL (≈ 10.8 µM) | MIC (Mycobacterium avium [24]): < 0.031 µg/mL | MIC (Mycobacterium avium [25]): 0.5 µg/mL (≈ 1.35 µM) | MIC (Mycobacterium avium [26]): 0.25 µg/mL (≈ 0.675 µM) | MIC (Mycobacterium avium [27]): 2 µg/mL (≈ 5.4 µM) | MIC (Mycobacterium avium [28]): 4 µg/mL (≈ 10.8 µM) | MIC (Mycobacterium avium [29]): 8 µg/mL (≈ 21.6 µM) | MIC (Mycobacterium avium [30]): < 0.125 µg/mL | MIC (Mycobacterium avium [31]): 8 µg/mL (≈ 21.6 µM) | MIC (Mycobacterium avium [32]): < 0.0625 µg/mL | MIC (Mycobacterium avium [33]): 0.5 µg/mL (≈ 1.35 µM) | MIC (Mycobacterium avium [34]): 4 µg/mL (≈ 10.8 µM) | MIC [35]: 16 µg/mL (≈ 43.2 µM) | MIC (Mycobacterium avium [36]): 12.5 µg/mL (≈ 33.7 µM) | MIC (Mycobacterium avium [37]): 6.25 µg/mL (≈ 16.9 µM) | MIC (Mycobacterium avium [38]): 12.5 µg/mL (≈ 33.7 µM) | MIC (Mycobacterium avium [39]): 12.5 µg/mL (≈ 33.7 µM) | MIC (Mycobacterium avium [40]): 25 µg/mL (≈ 67.5 µM) | MIC [41]: 6.25 µg/mL (≈ 16.9 µM) | MIC [42]: 25 µg/mL (≈ 67.5 µM)

CCCOc1ccc(-c2cn(CCN3CCCCCC3)c3ccccc3c2=O)cc1
MIC [1]: 128 µg/mL (≈ 316 µM) | MIC (Mycobacterium avium [2]): 128 µg/mL (≈ 316 µM) | MIC (Mycobacterium avium [3]): 128 µg/mL (≈ 316 µM) | MIC (Mycobacterium avium [4]): 256 µg/mL (≈ 633 µM) | selectivity ratio [5]: 4 to 6 | selectivity ratio [6]: 4 to 6 | MIC (Mycobacterium avium [7]): 32 µg/mL (≈ 79.1 µM) | MIC (Mycobacterium avium [8]): < 4 µg/mL | MIC (Mycobacterium avium [9]): 8 µg/mL (≈ 19.8 µM) | MIC (Mycobacterium avium [10]): 128 µg/mL (≈ 316 µM) | MIC (Mycobacterium avium [11]): 32 µg/mL (≈ 79.1 µM) | MIC (Mycobacterium avium [12]): < 4 µg/mL | MIC (Mycobacterium avium [13]): 32 µg/mL (≈ 79.1 µM) | MIC (Mycobacterium avium [14]): 512 µg/mL (≈ 1270 µM) | MIC (Mycobacterium avium [15]): < 4 µg/mL | MIC (Mycobacterium avium [16]): < 4 µg/mL | MIC (Mycobacterium avium [17]): < 4 µg/mL | MIC (Mycobacterium avium [18]): < 2 µg/mL | MIC (Mycobacterium avium [19]): 16 µg/mL (≈ 39.5 µM) | MIC [20]: < 0.5 µg/mL | MIC (Mycobacterium avium [21]): < 4 µg/mL | MIC (Mycobacterium avium [22]): 1 µg/mL (≈ 2.47 µM) | MIC (Mycobacterium avium [23]): 1 µg/mL (≈ 2.47 µM) | MIC (Mycobacterium avium [24]): < 0.031 µg/mL | MIC (Mycobacterium avium [25]): 0.5 µg/mL (≈ 1.24 µM) | MIC (Mycobacterium avium [26]): 1 µg/mL (≈ 2.47 µM) | MIC (Mycobacterium avium [27]): 0.5 µg/mL (≈ 1.24 µM) | MIC (Mycobacterium avium [28]): 4 µg/mL (≈ 9.89 µM) | MIC (Mycobacterium avium [29]): 2 µg/mL (≈ 4.94 µM) | MIC (Mycobacterium avium [30]): < 0.125 µg/mL | MIC (Mycobacterium avium [31]): 4 µg/mL (≈ 9.89 µM) | MIC (Mycobacterium avium [32]): < 0.0625 µg/mL | MIC (Mycobacterium avium [33]): 2 µg/mL (≈ 4.94 µM) | MIC (Mycobacterium avium [34]): < 0.125 µg/mL | MIC [35]: 8 µg/mL (≈ 19.8 µM) | MIC (Mycobacterium avium [36]): 0.78 µg/mL (≈ 1.93 µM) | MIC (Mycobacterium avium [37]): < 0.195 µg/mL | MIC (Mycobacterium avium [38]): 12.5 µg/mL (≈ 30.9 µM) | MIC (Mycobacterium avium [39]): < 0.39 µg/mL | MIC (Mycobacterium avium [40]): 3.12 µg/mL (≈ 7.72 µM) | MIC [41]: < 0.39 µg/mL | MIC [42]: 6.25 µg/mL (≈ 15.4 µM)
